Test results published in the supplement of paper PMC10307832.

What was measured:
Assay in all cases: relative viability (nuclei count vs DMSO), 5 days (fraction); higher = more cells survive
Serdemetan + Palbociclib = compound: c1ccc2c(CCNc3ccc(Nc4ccncc4)cc3)c[nH]c2c1 [Serdemetan] + CC(=O)c1c(C)c2cnc(Nc3ccc(N4CCNCC4)cn3)nc2n(C2CCCC2)c1=O [Palbociclib] (partner 0.5 µM)
Method in brief: (§1)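 Lung cancer cell lines, seeded in 1536-well plates, were treated the following day by pin tool with a single drug or with five library-drug doses (not always all listed) in √10 steps on top of a fixed anchor-drug dose. Cells were fixed and nuclei stained in one step after 5 days, and nuclei were counted. Relative viability is the nuclei count for treated wells divided by that for vehicle wells, reported as medians of duplicate plates.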

Serdemetan + Phenformin = compound: c1ccc2c(CCNc3ccc(Nc4ccncc4)cc3)c[nH]c2c1 [Serdemetan] + N=C(N)NC(=N)NCCc1ccccc1 [Phenformin] (partner 250 µM)
Method in brief: as §1

Serdemetan + Alpelisib = compound: c1ccc2c(CCNc3ccc(Nc4ccncc4)cc3)c[nH]c2c1 [Serdemetan] + Cc1nc(NC(=O)N2CCC[C@H]2C(N)=O)sc1-c1ccnc(C(C)(C)C(F)(F)F)c1 [Alpelisib] (partner 2 µM)
Method in brief: as §1

Serdemetan + Tozasertib = compound: c1ccc2c(CCNc3ccc(Nc4ccncc4)cc3)c[nH]c2c1 [Serdemetan] + Cc1cc(Nc2cc(N3CCN(C)CC3)nc(Sc3ccc(NC(=O)C4CC4)cc3)n2)n[nH]1 [Tozasertib] (partner 0.1 µM)
Method in brief: as §1

Cell Line | relative viability (Serdemetan + Palbociclib; first compound 0.04 µM) | relative viability (Serdemetan + Palbociclib; first compound 0.1265 µM) | relative viability (Serdemetan + Palbociclib; first compound 0.4 µM) | relative viability (Serdemetan + Palbociclib; first compound 1.265 µM) | relative viability (Serdemetan + Palbociclib; first compound 4 µM) | relative viability (Serdemetan + Phenformin; first compound 0.04 µM) | relative viability (Serdemetan + Phenformin; first compound 0.1265 µM) | relative viability (Serdemetan + Phenformin; first compound 0.4 µM) | relative viability (Serdemetan + Phenformin; first compound 1.265 µM) | relative viability (Serdemetan + Phenformin; first compound 4 µM) | relative viability (Serdemetan + Alpelisib; first compound 0.04 µM) | relative viability (Serdemetan + Alpelisib; first compound 0.1265 µM) | relative viability (Serdemetan + Alpelisib; first compound 0.4 µM) | relative viability (Serdemetan + Alpelisib; first compound 1.265 µM) | relative viability (Serdemetan + Alpelisib; first compound 4 µM) | relative viability (Serdemetan + Tozasertib; first compound 0.04 µM) | relative viability (Serdemetan + Tozasertib; first compound 0.1265 µM) | relative viability (Serdemetan + Tozasertib; first compound 0.4 µM) | relative viability (Serdemetan + Tozasertib; first compound 1.265 µM) | relative viability (Serdemetan + Tozasertib; first compound 4 µM)
NCI-H1915 | 0.483 | 0.52 | 0.482 | 0.434 | 0.39 | 0.38 | 0.358 | 0.359 | 0.318 | 0.334 | 1.04 | 1.06 | 1.01 | 0.503 | 0.802 | 0.406 | 0.416 | 0.38 | 0.317 | 0.396
NCI-H1944 | 0.364 | 0.355 | 0.31 | 0.253 | 0.221 | 0.197 | 0.213 | 0.202 | 0.128 | 0.154 | 0.806 | 0.753 | 0.715 | – | 0.453 | 0.249 | 0.278 | 0.234 | 0.158 | 0.165
NCI-H1975 | 0.691 | 0.662 | 0.434 | 0.331 | 0.783 | 0.401 | 0.416 | 0.427 | – | 0.415 | 0.68 | 0.675 | 0.666 | 0.637 | 0.803 | 0.825 | 0.701 | 0.722 | – | 0.771
NCI-H1993 | 0.64 | 0.603 | 0.736 | 0.699 | 0.569 | 0.516 | 0.539 | 0.596 | 0.454 | 0.532 | 0.715 | 0.802 | 0.621 | – | 0.67 | 0.578 | 0.579 | 0.592 | 0.568 | 0.562
NCI-H2009 | 0.238 | 0.227 | 0.258 | 0.162 | 0.193 | 0.451 | 0.472 | 0.431 | 0.307 | 0.366 | 1.18 | 1.11 | 1.08 | 1.12 | 0.964 | 0.7 | 0.712 | 0.705 | 0.675 | 0.625
NCI-H2023 | 0.355 | 0.328 | 0.341 | 0.263 | 0.215 | 0.395 | 0.413 | 0.351 | 0.254 | 0.205 | 0.613 | 0.651 | 0.521 | 0.375 | 0.266 | 0.377 | 0.359 | 0.309 | 0.298 | 0.153
NCI-H2085 | 0.46 | 0.457 | 0.466 | 0.382 | 0.342 | 0.778 | 0.762 | 0.634 | 0.571 | 0.424 | 0.952 | 0.911 | 0.801 | 0.573 | 0.585 | 0.813 | 0.797 | 0.77 | 0.708 | 0.574
NCI-H2087 | 0.28 | 0.255 | 0.236 | 0.147 | 0.215 | 0.446 | 0.47 | 0.455 | 0.267 | 0.253 | 1.1 | 0.986 | 1.09 | 0.669 | 0.532 | 0.282 | 0.237 | 0.308 | 0.202 | 0.2
